Like-named read-outs stand apart in the source and are kept apart here.
Assays:
[1] = tested on: housefly (Musca domestica); test: Mortality test against houseflies by topical application; type: in vivo
Description: Each test compound was accurately weighed and a 1% solution and an 0.1% solution of the sample in acetone were prepared. A 1 μl portion of either of the above solutions was micropipetted onto the thoracic dorsal part of each female adult housefly (Musca domestica) under ether anaesthesia and the fly was released in a high-walled dish together with feed. The dish was covered with a metal-wire net and maintained at 25° C. After 24 hours, the test flies were inspected for deaths and the mortality (%) was calculated. Thirty test flies were used per concentration group.

[2] = Fish Toxicity Test; type: in vivo; details: guppy, water; rank; 50% of female guppies killed during 48 hours, 20° C.; [Mixture] = cis/trans 50/50; read-out: TLm (medium tolerance limit)
Description: (§1) The mixture was stirred well to prepare a test water. Ten female guppies from 3 to 4 months of age were released into the test water and maintained at 20° C. The concentration of the test compound at which 50% of the guppies were killed during the ensuring 48 hours was determined. [This concentration is referred to as TLm (medium tolerance limit, ppm)].
(§2) A rank corresponds to TLm of not less than 10 ppm.
(§3) B rank corresponds to TLm of 0.5-10 ppm.
(§4) C rank corresponds to TLm of not more than 0.5 ppm.

[3] = tested on: houseflies; test: Utility Example 3: settling mist method, mortality test against houseflies, oil preparations of Formulation Example 3; type: in vivo; details: oil preparation of Formulation Example 3 (0.1 part compound + 0.08 part permethrin per 100 parts), 24 hours; cis/trans 50/50
Description: To 0.1 part of each of Compounds (1) to (38) was added 0.08 part of permethrin, followed by the addition of a sufficient amount of kerosene to make 100 parts. The mixture was stirred to obtain an oil preparation of each compound.
By the settling mist method, a mortality test against houseflies was carried out using the oil preparations obtained in Formulation Example 3 from Compounds (1), (5), (7), (9), (11), (12), (15), (17) and (28) [Each compound is a mixture of cis- and trans-isomer in a ratio 50/50]. After 24 hours, the flies were examined for deaths. The mortality (%) was not less than 90% for each of Compounds (1), (5), (7), (9), (11), (12), (15), (17) and (28).

[4] = tested on: guppies; test: Fish Toxicity Test; type: in vivo; details: rank; 50% of female guppies killed during 48 hours, 20° C.; [Mixture] = cis/trans 50/50
Description: as §1, §2, §3, §4

[5] = Light Stability Test; type: physicochemical; details: ultraviolet light, wavelength=3600 A, 31°-35° C., on glass plate
Description: Into 2.0 ml of acetone were dissolved 80 mg of each test compound. A 5 μl portion of the solution was taken and spread on a glass plate (Micro Standard Cover Glass, 18 m/m No. 1, 200 pcs, Matsunami Glass Ind., Ltd.) and the acetone was evaporated. The specimen was exposed to ultraviolet light from a fluorescent lamp (Tokyo Shibaura Electric Co., Ltd., FL20BL, glow-type, 100 V, 24.5 W, wavelength=3600 A) which was fixed just above the specimen at a distance of 11 cm at a temperature of 31°-35° C. for a predetermined exposure time. The test liquid was washed away with 1.0 ml of methanol containing 0.04% of dioctyl phthalate as an internal reference and high-speed liquid chromatography was carried out on the washings to determine the residual amount of the test compound.

[6] = 1μg/fly, female adult, 24 hours, 25° C., [Mixture] = cis/trans 50/50, read-out: Mortality (%)
[7] = 10μg/fly, female adult, 24 hours, 25° C., [Mixture] = cis/trans 50/50, read-out: Mortality (%)

Row | Structure (SMILES) | mortality at 1 µg/fly ([1]; 24 h) | mortality at 10 µg/fly ([1]; 24 h) | LC50 at 48 h [2] | also measured
1 | CC1(C)C(CC(Cl)(Cl)Cl)C1C(=O)OC(C#N)c1cccc(Oc2ccc(Cl)cc2)c1 (stereo not drawn) [Compound (15) [Mixture], 3-(4-Chlorophenoxy)-α-cyanobenzyl 2,2-dimethyl-3-(2,2,2-trichloroethyl)cyclopropanecarboxylate] | 86.7% | 100% | ≥ 10 µg/mL | –
2 | CC(Cl)(Cl)CC1C(C(=O)OC(C#N)c2cccc(Oc3ccccc3)c2)C1(C)C (stereo not drawn) [Compound (9) [Mixture], 3-Phenoxy-α-cyanobenzyl 2,2-dimethyl-3-(2,2-dichloropropyl)cyclopropanecarboxylate] | 100% | 100% | – | –
3 | CC(Cl)(Cl)CC1C(C(=O)OC(C#N)c2cccc(Oc3ccccc3)c2)C1(C)C (stereo not drawn) [Compound (9), 3-Phenoxy-α-cyanobenzyl 2,2-dimethyl-3-(2,2-dichloropropyl)cyclopropanecarboxylate] | – | – | – | Mortality (%) [3]: not less than 90%
4 | CC(C)=CC1C(C(=O)OCc2coc(Cc3ccccc3)c2)C1(C)C (centres unmarked) [Resmethrin, 5-benzyl-3-furylmethyl chrysanthemate, reference compound] | – | – | ≤ 0.5 µg/mL | –
5 | CC1(C)[C@H](C(=O)OCc2cccc(Oc3ccccc3)c2)[C@@H]1CC(Cl)(Cl)Cl (relative stereo) [Compound (1) [Cis-isomer], 3-Phenoxybenzyl 2,2-dimethyl-3-(2,2,2-trichloroethyl)cyclopropanecarboxylate] | 96.7% | 100% | ≥ 10 µg/mL | –
6 | CC(Cl)(Cl)CC1C(C(=O)OCc2cccc(Oc3ccccc3)c2)C1(C)C (centres unmarked) [Compound (5) [Mixture], 3-Phenoxybenzyl 2,2-dimethyl-3-(2,2-dichloropropyl)cyclopropanecarboxylate] | 100% | 100% | – | –
7 | CC(Cl)(Cl)CC1C(C(=O)OCc2cccc(Oc3ccccc3)c2)C1(C)C (centres unmarked) [(5), 3-Phenoxybenzyl 2,2-dimethyl-3-(2,2-dichloropropyl)cyclopropanecarboxylate] | – | – | – | Mortality (%) [3]: not less than 90%
8 | CC1(C)[C@H](CC(Cl)(Cl)Cl)[C@H]1C(=O)OC(C#N)c1cccc(Oc2ccccc2)c1 (stereo partly drawn) [Compound (7) [Trans-isomer], 3-Phenoxy-α-cyanobenzyl 2,2-dimethyl-3-(2,2,2-trichloroethyl)cyclopropanecarboxylate] | – | – | – | TLm (medium tolerance limit) [4]: B (B rank corresponds to TLm of 0.5-10 ppm)
9 | CC(C)C(C(=O)OC(C#N)c1cccc(Oc2ccccc2)c1)c1ccc(Cl)cc1 (stereo not drawn) [Fenvalerate, 3-phenoxy-α-cyanobenzyl α-(4-chlorophenyl)isovalerate, reference compound] | – | – | ≤ 0.5 µg/mL | –
10 | C#CC(OC(=O)C1C(CC(Br)(Br)Br)C1(C)C)c1cccc(Oc2ccccc2)c1 (stereo not drawn) [Compound (12) [Mixture], 3-Phenoxy-α-ethynylbenzyl 2,2-dimethyl-3-(2,2,2-tribromoethyl)cyclopropanecarboxylate] | – | – | ≥ 10 µg/mL | –
11 | CC1(C)C(C=C(Cl)Cl)C1C(=O)OCc1cccc(Oc2ccccc2)c1 (racemic) [Permethrin, 3-phenoxybenzyl (+)-cis,trans-2,2-dimethyl-3-(2,2-dichlorovinyl)-cyclopropanecarboxylate, reference compound] | – | – | ≤ 0.5 µg/mL | –
12 | C=CCC1=C(C)C(OC(=O)C2C(C=C(C)C)C2(C)C)CC1=O (centres unmarked) [Allethrin, reference compound] | 33.3% | 100% | ≤ 0.5 µg/mL | Residue (%) ([5]; exposure time 3.5 hrs.): 14%; Residue (%) ([5]; exposure time 3 days): 0%
13 | CC1(C)C(CC(Cl)(Cl)Cl)C1C(=O)OCc1coc(Cc2ccccc2)c1 (centres unmarked) [Compound (28) [Mixture], 5-Benzyl-3-furylmethyl 2,2-dimethyl-3-(2,2,2-trichloroethyl)cyclopropanecarboxylate] | 86.7% | 100% | ≥ 10 µg/mL | –
14 | CC1(C)C(CC(Cl)(Cl)Cl)C1C(=O)OCc1cccc(OC=C(Cl)Cl)c1 (centres unmarked) [Compound (33) [Mixture], 3-(2,2-dichlorovinyloxy)benzyl 2,2-dimethyl-3-(2,2,2-trichloroethyl)cyclopropanecarboxylate] | – | – | ≥ 10 µg/mL | mortality at 1 µg/fly [1, 6]: 6.7%; mortality at 10 µg/fly [1, 7]: 33.3%
15 | C#CC(OC(=O)C1C(CC(Cl)(Cl)Cl)C1(C)C)c1cccc(Oc2ccc(Cl)cc2)c1 (stereo not drawn) [Compound (21) [Mixture], 3-(4-Chlorophenoxy)-α-ethynylbenzyl 2,2-dimethyl-3-(2,2,2-trichloroethyl)cyclopropanecarboxylate] | 60% | 93.3% | ≥ 10 µg/mL | –
16 | C=CCC1=C(C)C(OC(=O)C2C(CC(Cl)(Cl)Cl)C2(C)C)CC1=O (centres unmarked) [Compound (38) [Mixture], Allethronyl 2,2-dimethyl-3-(2,2,2-trichloroethyl)cyclopropanecarboxylate] | 6.7% | 100% | 0.5 to 10 µg/mL | –
17 | CC1(C)C(CC(Cl)(Cl)Cl)C1C(=O)OCc1cccc(Oc2ccc(Cl)cc2)c1 (centres unmarked) [Compound (2) [Mixture], 3-(4-Chlorophenoxy)benzyl 2,2-dimethyl-3-(2,2,2-trichloroethyl)cyclopropanecarboxylate] | 0% | 86.7% | ≥ 10 µg/mL | –
18 | CC1(C)C(CC(Cl)(Cl)Cl)C1C(=O)OC(C#N)c1cccc(OC=C(Cl)Cl)c1 (stereo not drawn) [Compound (34) [Mixture], 3-(2,2-dichlorovinyloxy)-α-cyanobenzyl 2,2-dimethyl-3-(2,2,2-trichloroethyl)cyclopropanecarboxylate] | – | – | ≥ 10 µg/mL | mortality at 1 µg/fly [1, 6]: 56.7%; mortality at 10 µg/fly [1, 7]: 100%; Residue (%) ([5]; exposure time 3.5 hrs.): 100%; Residue (%) ([5]; exposure time 3 days): 88%; Residue (%) ([5]; exposure time 5 days): 44%
19 | C#CC(OC(=O)[C@@H]1[C@@H](CC(Cl)(Cl)Cl)C1(C)C)c1cccc(Oc2ccccc2)c1 (relative stereo) [Compound (11) [Trans-isomer], 3-Phenoxy-α-ethynylbenzyl 2,2-dimethyl-3-(2,2,2-trichloroethyl)cyclopropanecarboxylate] | – | – | – | TLm (medium tolerance limit) [4]: A (A rank corresponds to TLm of not less than 10 ppm)
20 | C#CC(OC(=O)[C@@H]1[C@H](CC(C)(Cl)Cl)C1(C)C)c1cccc(Oc2ccccc2)c1 (stereo partly drawn) [Compound (13) [Cis-isomer], 3-Phenoxy-α-ethynylbenzyl 2,2-dimethyl-3-(2,2-dichloropropyl)cyclopropanecarboxylate] | – | – | – | TLm (medium tolerance limit) [4]: A (A rank corresponds to TLm of not less than 10 ppm)
21 | CC1(C)C(CC(Cl)(Cl)Cl)C1C(=O)OCN1C(=O)C2=C(CCCC2)C1=O (centres unmarked) [Compound (37) [Mixture], 3,4,5,6-Tetrahydrophthalimidomethyl 2,2-dimethyl-3-(2,2,2-trichloroethyl)cyclopropane carboxylate] | 40% | 56.7% | 0.5 to 10 µg/mL | –
22 | CC1(C)C(CC(Cl)(Cl)Cl)C1C(=O)OCc1cccc(Oc2ccccc2)c1 (centres unmarked) [(1), 3-Phenoxybenzyl 2,2-dimethyl-3-(2,2,2-trichloroethyl)cyclopropanecarboxylate] | – | – | – | Mortality (%) [3]: not less than 90%
23 | CC1(C)C(C=C(Cl)Cl)C1C(=O)OC(C#N)c1cccc(Oc2ccccc2)c1 (stereo not drawn) [Cypermethrin, 3-phenoxy-α-cyanobenzyl 2,2-dimethyl-3-(2,2-dichlorovinyl)cyclopropanecarboxylate, reference compound] | – | – | ≤ 0.5 µg/mL | –

Reference: patent US4299839A, “Novel pesticides and pesticidal compositions cyclopropanecarboxylates and pesticidal method” (priority 1979, dated 1981)
